Source: the NIST ThermoML archive (doi:10.1016/j.fluid.2011.11.022)
Numbers after ± are expanded uncertainties.

Conditions: Liquid; for mass density: Buoyancy - hydrostatic balance; for viscosity: Falling or rolling sphere viscometry

OCCOCCO [diethylene glycol]
Conditions | mass density [kg/m3] | viscosity [mPa·s]
293.15 K, 98 kPa | 1117.04 ± 6.7 | 36.52 ± 1.5
293.15 K, 49030 kPa | 1137.67 ± 6.8 | 52.72 ± 2.1
293.15 K, 98060 kPa | 1158.16 ± 7 | 74.16 ± 3.1
293.15 K, 147100 kPa | 1171 ± 7 | 102.6 ± 4.7
293.15 K, 196130 kPa | 1184.89 ± 7.1 | 139.9 ± 7.2
293.15 K, 245160 kPa | 1196.63 ± 7.2 | 187.3 ± 11
298.15 K, 98 kPa | 1114.02 ± 6.7 | 28.36 ± 1.2
298.15 K, 49030 kPa | 1135.41 ± 6.8 | 40.36 ± 1.6
298.15 K, 98060 kPa | 1155.68 ± 6.9 | 56.52 ± 2.3
298.15 K, 147100 kPa | 1168.88 ± 7 | 77.16 ± 3.3
298.15 K, 196130 kPa | 1182.6 ± 7.1 | 103.8 ± 4.8
298.15 K, 245160 kPa | 1194.5 ± 7.2 | 138.3 ± 7.1
312.6 K, 98 kPa | 1104.9 ± 6.6 | 15.25 ± 0.62
312.62 K, 49030 kPa | 1128.43 ± 6.8 | 21.04 ± 0.86
312.63 K, 98060 kPa | 1148.18 ± 6.9 | 28.2 ± 1.2
312.67 K, 147100 kPa | 1162.46 ± 7 | 37.14 ± 1.5
312.71 K, 196130 kPa | 1175.84 ± 7.1 | 48.29 ± 2
312.75 K, 245160 kPa | 1188.18 ± 7.1 | 62.07 ± 2.6
329.28 K, 98 kPa | 1093.62 ± 6.6 | 8.458 ± 0.35
329.33 K, 98060 kPa | 1138.99 ± 6.8 | 14.73 ± 0.6
329.33 K, 196130 kPa | 1167.96 ± 7 | 23.82 ± 0.98
329.33 K, 245160 kPa | 1180.84 ± 7.1 | 29.61 ± 1.2
329.38 K, 49030 kPa | 1119.54 ± 6.7 | 11.29 ± 0.46
329.38 K, 147100 kPa | 1154.56 ± 6.9 | 18.83 ± 0.77
344.99 K, 98 kPa | 1082.27 ± 6.5 | 5.34 ± 0.22
345.2 K, 49030 kPa | 1110.34 ± 6.7 | 7.062 ± 0.29
345.38 K, 98060 kPa | 1129.61 ± 6.8 | 8.969 ± 0.37
345.47 K, 147100 kPa | 1146.46 ± 6.9 | 11.23 ± 0.46
345.61 K, 196130 kPa | 1160.06 ± 7 | 13.81 ± 0.57
345.78 K, 245160 kPa | 1173.38 ± 7 | 16.75 ± 0.68
349.77 K, 98 kPa | 1078.67 ± 6.5 | 4.809 ± 0.2
350.06 K, 49030 kPa | 1107.36 ± 6.6 | 6.25 ± 0.26
350.13 K, 147100 kPa | 1144.02 ± 6.9 | 9.866 ± 0.4
350.16 K, 98060 kPa | 1126.71 ± 6.8 | 7.904 ± 0.32
350.4 K, 196130 kPa | 1157.71 ± 7 | 12.04 ± 0.49
366.77 K, 98 kPa | 1065.35 ± 6.4 | 3.231 ± 0.13
367.13 K, 49030 kPa | 1096.31 ± 6.6 | 4.124 ± 0.17
367.26 K, 147100 kPa | 1134.7 ± 6.8 | 6.331 ± 0.26
367.3 K, 98060 kPa | 1115.94 ± 6.7 | 5.145 ± 0.21
367.37 K, 196130 kPa | 1149.25 ± 6.9 | 7.607 ± 0.31
367.61 K, 245160 kPa | 1163.2 ± 7 | 9.086 ± 0.37
413.65 K, 98 kPa | 1024.3 ± 6.2 | 1.409 ± 0.057
413.8 K, 49030 kPa | 1061.47 ± 6.4 | 1.78 ± 0.073
413.93 K, 98060 kPa | 1083.55 ± 6.5 | 2.153 ± 0.088
414.01 K, 147100 kPa | 1106.4 ± 6.6 | 2.554 ± 0.1
414.09 K, 196130 kPa | 1124.99 ± 6.8 | 2.987 ± 0.12
414.29 K, 245160 kPa | 1140.38 ± 6.8 | 3.474 ± 0.14
463.94 K, 98060 kPa | 1043.8 ± 6.3 | 1.218 ± 0.05
463.99 K, 49030 kPa | 1016.46 ± 6.1 | 1.002 ± 0.041
464.05 K, 98 kPa | 973.11 ± 5.8 | 0.789 ± 0.032
464.09 K, 147100 kPa | 1071.5 ± 6.4 | 1.432 ± 0.058
464.2 K, 196130 kPa | 1097.41 ± 6.6 | 1.655 ± 0.067
464.37 K, 245160 kPa | 1114.3 ± 6.7 | 1.879 ± 0.077
